Source: US20210186879A1, “TARGETED DELIVERY OF HYDROPHILIC DRUGS TO LUNG” (DOUBLE BOND PHARMACEUTICALS AB, priority 2016, published 2021)

Experiments:
[1] = In vivo distribution of doxorubicin in lung and blood serum of Wistar rats; conditions: 4 hours
Protocol: (§1) For in vivo investigation both rats and rabbits were used: female Wistar rats 60-75 days old weighing 300 g±30 g and Californian breed male rabbits 75-90 days old weighing 2000 g±250 g were selected. […] Different doxorubicin containing formulations with a total doxorubicin dose 5 mg/kg were administered via a single bolus injection into the tail for rats and via a slow flow of 1 ml/min in the marginal ear vein for rabbits.
(§2) Five or six pieces of lung tissue of a total weight of about 1 g were taken from different parts of a lung. The samples were homogenized with a solution of aqueous ethanol containing HCl for 20 s at 7000 rpm and for 10 s at 11000 rpm. […] Doxorubicin and doxycycline (DOC) concentration in the final supernatant was determined with fluorometric analysis and high-performance liquid chromatography respectively.
An aqueous solution of doxorubicin hydrochloride, an aqueous suspension of doxorubicin alkane sulfate and an aqueous suspension of doxorubicin alkyl sulfonate were administered via a single bolus injection into the tail Animals were sacrificed after 4 hours after administered via a single bolus injection into the tail; total doxorubicin dose 5 mg/kg. […] The results are summarized in Table 7 and illustrated in FIG. 10.

[2] = rat, in vivo, iv, 5 mg/kg
[3] = In vivo distribution of doxorubicin in lung and femoral muscle of Californian rabbits; conditions: 4 hours
Protocol: as §1, §2
Suspension of complexes of doxorubicin and doxorubicin hydrochloride were administered via a slow flow of 1 ml/min to rabbits in the marginal ear vein with a total doxorubicin dose 1.25 mg/kg. Animals were sacrificed after 4 hours after administration. Concentration of doxorubicin in lung and femoral muscle was determined in accordance to the procedure described above. As it is seen from table 8 the concentration of doxorubicin in femoral muscle as a representation of a system concentration is not increased for complexes compared with doxorubicin hydrochloride.

[4] = cited from earlier work
[5] = 5 mg/kg i.v. single bolus, ± SD
[6] = 1.25 mg/kg i.v. marginal ear vein, ± SD

Blood serum DOX [1, 5]	Lung tissue DOX [1, 5]	Blood serum Relative difference ([1]; relative to control CI-DOX (1))	Lung tissue Relative difference ([1]; relative to control CI-DOX (1))	Particle size particularly advantageous in targeting lung tissue [2]	Femoral muscle DOX [3, 6]	Lung tissue DOX [3, 6]	Femoral muscle Relative difference ([3]; relative to control CI-DOX (1))	Lung tissue Relative difference ([3]; relative to control CI-DOX (1))	SMILES	Cumulative dose at which the risk of developing cardiac side effects increases dramatically [4]
0.023 ± 0.009 µg/kg	3.17 ± 0.33 µg/kg	1.21	4.46	40-90 μm	0.06 ± 0.01 µg/kg	6.14 ± 0.53 µg/kg	0.26	7.40	CCCCCCCCCCCCCCOS(=O)(=O)O.COc1cccc2c1C(=O)c1c(O)c3c(c(O)c1C2=O)CC(O)(C(=O)CO)CC3OC1CC(N)C(O)C(C)O1 (stereo not shown) [doxorubicin CnH2n+1OSO3^− n=14]	–
–	–	–	–	–	–	–	–	–	COc1cccc2c1C(=O)c1c(O)c3c(c(O)c1C2=O)C[C@@](O)(C(=O)CO)C[C@@H]3O[C@H]1C[C@H](N)[C@H](O)[C@H](C)O1 [doxorubicin]	≥ 550 mg/m^2
